{"source": "patent US20230137092A1", "about": "“Composition and Method for the Treatment and Prevention of Cardiac, Pulmonary, Dermal, and Renal Fibrosis” (EMERALD HEALTH PHARMACEUTICALS INC., priority 2020, published 2023)", "key": {"[1]": {"system": "human immortalized cardiac fibroblasts (hICF)", "test": "Fibroblast differentiation into myofibroblasts: α-SMA expression in hICF", "assay_type": "cell-based", "conditions": "hICF treated with TGF-β or Ang II; pretreatment with compound", "text": "The profibrotic activity of Ang II on cardiac fibroblasts in vitro and in vivo has been extensively documented (H. H. Sigusch et al., 1996, Cardiovasc Res, 31:546-554). To study myofibroblast differentiation in vitro, immortalized cardiac fibroblasts (hICF) were stained with for α-SMA expression, a specific marker for myofibroblasts differentiation. Immortalized primary human cardiac fibroblasts (hICF) with SV40 Large T antigen were obtained from Innoprot SL (Derio, Spain) and cultured in low passages (<5 passages). The cells were maintained in a humidified atmosphere at 37° C. containing 5% CO2, 10% fetal bovine serum (FBS) and 1% (v/v) penicillin/streptomycin in Fibroblast Medium-2 (P60108-2, Innoprot, Derio, Spain). Ang II was purchased from Sigma-Aldrich Co (A9525, Sigma, Madrid, Spain) and TGFb1 (Transforming Growth Factor-b)-1 (10 ng/mL) was obtained from ImmunoTools GmbH (Friesoythe, Germany). Both TGF-β and Ang II induced α-SMA protein expression in cultured hICF and pretreatment with compound of Formula (VIII) decreased α-SMA expression. The differentiation to myofibroblast was associated with morphological changes of cellular hypertrophy."}, "[2]": {"system": "cardiac myofibroblast proliferation", "test": "Ki67 immunostaining of left ventricle sections (myofibroblast proliferation), Ang II preventive model", "assay_type": "in vivo, mouse", "conditions": "two weeks after Ang II infusion; ###p<0.001 versus Ang II group", "method": "Proliferation of fibroblast is an important event of Ang II-induced fibrosis and plays an important role in cardiac fibrosis. […] Ki 67 is a protein that is encoded by the MKI67 gene and is a cellular marker for proliferation. Cardiac tissue sections ([…]) were deparaffinized and boiled for 10 minutes in sodium citrate buffer (10 mM, pH 6.0) (Sigma-Aldrich, Madrid, Spain) for antigen retrieval. The sections were then incubated in a PBS washing buffer containing 0.1% Triton X-100 (Sigma-Aldrich, Madrid, Spain) three times for 10 minutes. Nonspecific binding was blocked with 3% bovine serum albumin (BSA) (Sigma-Aldrich, Madrid, Spain). The sections were incubated overnight at 4° C. with Ki 67 antibody (1:100 dilution, ab15580, Abcam, Cambridge, UK). After three washes for 10 minutes each in wash buffer, slides were incubated with secondary antibody anti-rabbit Texas Red (1:100 dilution, #A-6399, Thermo Fischer Scientific, Waltham, Mass., USA) for 1 hour at room temperature in the dark. […] All images were acquired using a spectral confocal laser-scanning microscope LSM710, (Zeiss, Jena, Germany) with a 63× Plan-Apochromat oil immersion lens and quantified in 10-15 randomly chosen fields using ImageJ software (rsb.info.nih.gov/ij/)."}, "E2F pathway": {"system": "E2F pathway", "test": "Real-time quantitative PCR of E2F pathway markers in cardiac tissue, Ang II preventive model", "assay_type": "in vivo, mouse", "conditions": "Ang II mice; #p<0.05 versus Ang II group"}, "[3]": {"system": "Ang II-induced renal fibrosis", "test": "Ang II-induced renal fibrosis, preventive model, Sirius Red", "assay_type": "in vivo, mouse", "conditions": "Ang II 1.0 mg kg^- min^- two weeks, 20 mg/kg oral gavage", "method": "Ang II is the main peptide of the renin angiotensin system and a renal growth factor, inducing hyperplasia/hypertrophy depending on the cell type, and it induces renal fibrosis. Renal fibrosis was induced in mice by infusion of Ang II (1.0 mg kg^− min^−) for two weeks. The treatment with the compound of Formula (VIII) by oral gavage was the same as describe in Example 2. After two weeks of treatment, the mice were sacrificed under ether anesthesia. Kidney samples were collected and fixed in 4% paraformaldehyde and embedded in paraffin. The paraffin sections (5 μm) were stained with Sirius Red for evaluation of fibrosis. Subcutaneous Ang II infusion induced a significant increase of collagen content and in the mice treated with compound, the induction of fibrosis in the kidney is prevented (FIG. 10)."}, "ERK1+2": {"system": "ERK1+2", "test": "Ang II-induced ERK1+2 phosphorylation in hICF, immunoblot", "assay_type": "cell-based, human", "conditions": "hICF preincubated with compound, Ang II for 30 minutes", "method": "The effect of compound of Formula (VIII) on Ang II signaling pathways in hICF was investigated. ERK1+2 and NFAT activation are two pathways activated by Ang-II (Wakatsuki et al., 2004, Trends Biochem Sci, 29:609-617). hICF were preincubated with compound of Formula (VIII), treated with Ang II for 30 minutes, washed with PBS and proteins extracted in 50 μL of lysis buffer (50 mM Tris-HCl pH 7.5, 150 mM NaCl, 1% (v/v) NP-40, 10% (v/v) glycerol, 10 mM NaF, 1 mM Na3VO4, aprotinin (10 μg/ml), leupeptine (10 μg/ml), pepstatin (1 μg/ml) and 1 mM PMSF saturated). Separated proteins in 10% SDS/PAGE gels were transferred to PVDF membranes and blocked in TBS solution containing 0.1% Tween 20 and 5% bovine serum albumin (BSA) for 1 hour at room temperature. Immunodetection of specific proteins was carried out by incubation with primary antibodies against p-ERK (1:1000; #4695 Cell Signaling Technology) and ERK (1:1000, M5670, Sigma). Membranes were incubated with horseradish peroxidase-conjugated secondary antibody was added and proteins detected by chemiluminescence system (GE Healthcare Europe GmbH). Compound of Formula (VIII) inhibited Ang II-induced ERK1+2 phosphorylation (FIG. 16B)."}, "[4]": {"system": "Ang II-induced pulmonary fibrosis", "test": "Ang II therapeutic model: lung fibrosis, Masson's trichrome, Ashcroft score", "assay_type": "in vivo, mouse", "conditions": "Ang II four weeks, 20 mg/kg oral last two weeks, ###p<0.001 versus Ang II group", "method": "Lung fibrosis was induced in mice by infusion of Ang II (500 ng kg^− min^−) for four weeks. The treatment with the compound of Formula (VIII) by oral gavage was the same as describe in Example 9. After two weeks of treatment, the mice were sacrificed under ether anesthesia. Lung samples were collected and fixed in 4% paraformaldehyde and embedded in paraffin. The paraffin sections (5 μm) were stained with Masson's trichrome (Merck Millipore, Darmstadt, Germany) for evaluation of fibrosis. Three-four random fields of each lung biopsy were photographed, digitalized using a Leica DFC420c camera and analyzed using Image J software in a blinded manner by two independent observers. The Ashcroft score was used to determine the degree of fibrosis in lung specimens as previously described (Ashcroft T et al., 1988, Clin. Pathol., 41:467-470; Hubner R H et al., 2008, Biotechniques, 44:507-511). Subcutaneous Ang II infusion induced pulmonary fibrosis which is prevented with compound (FIG. 15)."}, "[5]": {"system": "inflammatory and fibrotic marker mRNAs in heart", "test": "Real-time quantitative PCR of inflammatory and fibrotic markers in heart, Ang II preventive model", "assay_type": "in vivo, mouse", "conditions": "Ang II infused mice; 2-ΔΔCt method"}}, "data": [{"smiles": "C=C(C)C1CCC(C)=C[C@H]1C1=C(O)C(=O)C(CCCCC)=C(NCc2ccccc2)C1=O", "note": "(some centres unmarked) [Formula (VIII)]", "values": [{"measurement": "α-SMA expression", "setting": "[1]", "result": "decreased"}, {"measurement": "myofibroblast proliferation in left ventricle (Ki67-positive cells)", "setting": "[2]", "result": "reduced"}, {"measurement": "CDK1 gene expression in cardiac tissue", "setting": "E2F pathway", "result": "down regulated"}, {"measurement": "MKi67 gene expression in cardiac tissue", "setting": "E2F pathway", "result": "down regulated"}, {"measurement": "TOP2A gene expression in cardiac tissue", "setting": "E2F pathway", "result": "down regulated"}, {"measurement": "induction of fibrosis in the kidney (collagen content)", "setting": "[3]", "result": "prevented"}, {"measurement": "Ang II-induced ERK1+2 phosphorylation", "setting": "ERK1+2", "result": "inhibited"}, {"measurement": "lung fibrosis (Ashcroft score)", "setting": "[4]", "result": "reduced"}, {"measurement": "IL1β expression level in left ventricle", "setting": "[5]", "result": "significantly reduced"}, {"measurement": "IL6 expression level in left ventricle", "setting": "[5]", "result": "significantly reduced"}, {"measurement": "TNC expression level in left ventricle", "setting": "[5]", "result": "significantly reduced"}]}]}
